# Data published in PMC5218480 (PLoS ONE, 2017).
# Tested on: MV-4-11 cells
# Experiment: Gene expression microarray analysis (Affymetrix PrimeView) and GSEA
# Format: cell-based, human
# Design: RFU PODN (11730768_x_at) / Fold change /veh PODN (11730768_x_at) / RFU LINC00158 (11744669_a_at) / Fold change /veh LINC00158 (11744669_a_at) / RFU DUSP10 (11751237_a_at) / Fold change /veh DUSP10 (11751237_a_at) / RFU ID3 (11757404_x_at) / Fold change /veh ID3 (11757404_x_at) / RFU PLEKHG5 (11737974_s_at) / Fold change /veh PLEKHG5 (11737974_s_at) / RFU LRRC4B (11730491_at) / Fold change /veh LRRC4B (11730491_at) / RFU GIMAP4 (11747438_a_at) / Fold change /veh GIMAP4 (11747438_a_at) / RFU KRT8 (11758183_x_at) / Fold change /veh KRT8 (11758183_x_at) / RFU CNN1 (11734310_a_at) / Fold change /veh CNN1 (11734310_a_at) / RFU VPS37D (11726825_at) / Fold change /veh VPS37D (11726825_at) / RFU C10orf10 (11716522_x_at) / Fold change /veh C10orf10 (11716522_x_at) / RFU KIR2DL2 /// KIR2DL4 /// KIR2DL5A /// KIR2DL5B /// KIR2DS1 /// KIR2DS2 /// KIR2DS3 /// KIR2DS4 /// KIR3DL3 /// KIR3DL3 /// KIR3DS1 (11738374_at) / Fold change /veh KIR2DL2 /// KIR2DL4 /// KIR2DL5A /// KIR2DL5B /// KIR2DS1 /// KIR2DS2 /// KIR2DS3 /// KIR2DS4 /// KIR3DL3 /// KIR3DL3 /// KIR3DS1 (11738374_at) / RFU C1QL1 (11718748_at) / Fold change /veh C1QL1 (11718748_at) / RFU TMPRSS4 (11747572_a_at) / Fold change /veh TMPRSS4 (11747572_a_at) / RFU HAMP (11756126_x_at) / Fold change /veh HAMP (11756126_x_at) / RFU RNFT2 (11725882_a_at) / Fold change /veh RNFT2 (11725882_a_at) / RFU NR4A2 (11747474_a_at) / Fold change /veh NR4A2 (11747474_a_at) / RFU ABCC12 (11746883_a_at) / Fold change /veh ABCC12 (11746883_a_at) / RFU TMEM136 (11760407_x_at) / Fold change /veh TMEM136 (11760407_x_at) / RFU CLDN22 /// WWC2 (11732394_at) / Fold change /veh CLDN22 /// WWC2 (11732394_at) / RFU HLA-DPB1 (11760878_x_at) / Fold change /veh HLA-DPB1 (11760878_x_at) / RFU SPINT1 (11716480_a_at) / Fold change /veh SPINT1 (11716480_a_at) / RFU GAP43 (11754022_s_at) / Fold change /veh GAP43 (11754022_s_at) / RFU A4GNT (11735810_at) / Fold change /veh A4GNT (11735810_at) / RFU PRB3 (11715151_x_at) / Fold change /veh PRB3 (11715151_x_at) / RFU TUBB4B (11761932_at) / Fold change /veh TUBB4B (11761932_at) / RFU CAPN14 (11732068_a_at) / Fold change /veh CAPN14 (11732068_a_at) / RFU TMCC2 (11721928_a_at) / Fold change /veh TMCC2 (11721928_a_at) / RFU IRGQ (11745062_a_at) / Fold change /veh IRGQ (11745062_a_at) / RFU FAM174B (11720279_a_at) / Fold change /veh FAM174B (11720279_a_at) / RFU TMPRSS4 (11748680_a_at) / Fold change /veh TMPRSS4 (11748680_a_at) / RFU FAM212B (11763350_a_at) / Fold change /veh FAM212B (11763350_a_at) / RFU PLEKHG5 (11743358_a_at) / Fold change /veh PLEKHG5 (11743358_a_at) / RFU ZSCAN30 (11745921_a_at) / Fold change /veh ZSCAN30 (11745921_a_at) / RFU CMKLR1 (11741424_a_at) / Fold change /veh CMKLR1 (11741424_a_at) / RFU LOC101060620 /// MAPK8IP1 (11723275_at) / Fold change /veh LOC101060620 /// MAPK8IP1 (11723275_at) / RFU SPTSSB (11747773_x_at) / Fold change /veh SPTSSB (11747773_x_at) / RFU PRSS12 (11739890_at) / Fold change /veh PRSS12 (11739890_at) / RFU BIN1 (11741810_x_at) / Fold change /veh BIN1 (11741810_x_at) / RFU WNT11 (11732464_a_at) / Fold change /veh WNT11 (11732464_a_at) / RFU C10orf10 (11716521_a_at) / Fold change /veh C10orf10 (11716521_a_at) / RFU C5orf56 (11738089_at) / Fold change /veh C5orf56 (11738089_at) / RFU CYB561 (11721691_x_at) / Fold change /veh CYB561 (11721691_x_at) / RFU ANKRD19P (11752326_a_at) / Fold change /veh ANKRD19P (11752326_a_at) / RFU OR2T12 /// OR2T33 /// OR2T8 (11738714_s_at) / Fold change /veh OR2T12 /// OR2T33 /// OR2T8 (11738714_s_at) / RFU VCAN (11748164_a_at) / Fold change /veh VCAN (11748164_a_at) / RFU JSRP1 (11732532_at) / Fold change /veh JSRP1 (11732532_at) / RFU KRTAP10-11 (11738290_x_at) / Fold change /veh KRTAP10-11 (11738290_x_at) / RFU MYO3A (11730013_a_at) / Fold change /veh MYO3A (11730013_a_at) / RFU EBF3 (11725865_a_at) / Fold change /veh EBF3 (11725865_a_at) / RFU CAMK2N1 (11719241_x_at) / Fold change /veh CAMK2N1 (11719241_x_at) / RFU C5orf56 (11738088_a_at) / Fold change /veh C5orf56 (11738088_a_at) / RFU OLFML3 (11715873_a_at) / Fold change /veh OLFML3 (11715873_a_at) / RFU LOC100653217 /// NTM (11731650_a_at) / Fold change /veh LOC100653217 /// NTM (11731650_a_at) / RFU MAPK11 (11762145_a_at) / Fold change /veh MAPK11 (11762145_a_at) / RFU FIZ1 (11724087_x_at) / Fold change /veh FIZ1 (11724087_x_at) / RFU OASL (11726364_x_at) / Fold change /veh OASL (11726364_x_at) / RFU SOX15 (11748057_x_at) / Fold change /veh SOX15 (11748057_x_at) / RFU CD79A (11719716_a_at) / Fold change /veh CD79A (11719716_a_at) / RFU HIST1H1D (11736915_at) / Fold change /veh HIST1H1D (11736915_at) / RFU CASKIN2 (11723855_a_at) / Fold change /veh CASKIN2 (11723855_a_at) / RFU LOC730098 (11760151_x_at) / Fold change /veh LOC730098 (11760151_x_at) / RFU OR4N2 (11742367_at) / Fold change /veh OR4N2 (11742367_at) / RFU PRRT2 (11749266_a_at) / Fold change /veh PRRT2 (11749266_a_at) / RFU SNX32 (11753110_a_at) / Fold change /veh SNX32 (11753110_a_at) / RFU CDHR5 (11726645_a_at) / Fold change /veh CDHR5 (11726645_a_at) / RFU RCAN1 (11760418_a_at) / Fold change /veh RCAN1 (11760418_a_at) / RFU FAM167A (11723789_a_at) / Fold change /veh FAM167A (11723789_a_at) / RFU FAM26E (11764081_at) / Fold change /veh FAM26E (11764081_at) / RFU ISYNA1 (11749810_s_at) / Fold change /veh ISYNA1 (11749810_s_at) / RFU ACY1 (11761880_at) / Fold change /veh ACY1 (11761880_at) / RFU 11764098_at / Fold change /veh 11764098_at / RFU SAMD14 (11745864_x_at) / Fold change /veh SAMD14 (11745864_x_at) / RFU NPB (11741838_a_at) / Fold change /veh NPB (11741838_a_at) / RFU TMPRSS6 (11731388_a_at) / Fold change /veh TMPRSS6 (11731388_a_at) / RFU KRTAP10-2 (11738614_at) / Fold change /veh KRTAP10-2 (11738614_at) / RFU ARHGAP8 /// PRR5-ARHGAP8 (11727945_x_at) / Fold change /veh ARHGAP8 /// PRR5-ARHGAP8 (11727945_x_at) / RFU KRTAP5-7 /// NADSYN1 (11734609_at) / Fold change /veh KRTAP5-7 /// NADSYN1 (11734609_at) / RFU RASL12 (11751679_a_at) / Fold change /veh RASL12 (11751679_a_at) / RFU CDKN2B (11736163_a_at) / Fold change /veh CDKN2B (11736163_a_at) / RFU PRF1 (11729649_at) / Fold change /veh PRF1 (11729649_at) / RFU, ZNF638 /// ZNF638-IT1 / Fold change vs veh, ZNF638 /// ZNF638-IT1 / RFU, PANK3 / Fold change vs veh, PANK3 / RFU, SH3YL1 / Fold change vs veh, SH3YL1 / RFU, ZEB2 / Fold change vs veh, ZEB2 / RFU, NRIP1 / Fold change vs veh, NRIP1 / RFU, PTTG1IP / Fold change vs veh, PTTG1IP / RFU, CAPN2 / Fold change vs veh, CAPN2 / RFU, MED14 / Fold change vs veh, MED14 / RFU, SNORA58 / Fold change vs veh, SNORA58 / RFU, C1orf63 / Fold change vs veh, C1orf63 / RFU, LRRFIP1 / Fold change vs veh, LRRFIP1 / RFU, NDUFAF7 / Fold change vs veh, NDUFAF7 / RFU, SLC12A2 / Fold change vs veh, SLC12A2 / RFU, IBTK / Fold change vs veh, IBTK / RFU, ESF1 / Fold change vs veh, ESF1 / Fold change vs veh, TMEM50B / RFU, TAOK1 / Fold change vs veh, TAOK1 / RFU, ACBD3 / Fold change vs veh, ACBD3 / RFU, TMA16 / Fold change vs veh, TMA16 / RFU, RWDD3 / Fold change vs veh, RWDD3 / RFU, BCAT1 / Fold change vs veh, BCAT1 / RFU, EDEM3 / Fold change vs veh, EDEM3 / RFU, TMEM33 / Fold change vs veh, TMEM33 / RFU, WDR75 / Fold change vs veh, WDR75 / RFU, AHCTF1 / Fold change vs veh, AHCTF1 / RFU, TFRC / Fold change vs veh, TFRC / RFU, ZDHHC17 / Fold change vs veh, ZDHHC17 / RFU, NOM1 / Fold change vs veh, NOM1 / RFU, ARL8B / Fold change vs veh, ARL8B / RFU, ZBTB11 / Fold change vs veh, ZBTB11 / RFU, TAMM41 / Fold change vs veh, TAMM41 / RFU, KIAA1704 /// LOC100996395 / Fold change vs veh, KIAA1704 /// LOC100996395 / RFU, ING1 / Fold change vs veh, ING1 / RFU, TRMT61B / Fold change vs veh, TRMT61B / RFU, FUBP3 / Fold change vs veh, FUBP3 / RFU, TP53 / Fold change vs veh, TP53 / RFU, TNKS2 / Fold change vs veh, TNKS2 / RFU, ZFP14 / Fold change vs veh, ZFP14 / RFU, ACTR2 / Fold change vs veh, ACTR2 / RFU, PPP3R1 / Fold change vs veh, PPP3R1 / RFU, PIK3R1 / Fold change vs veh, PIK3R1 / RFU, HNRNPA1 / Fold change vs veh, HNRNPA1 / RFU, RNF170 / Fold change vs veh, RNF170 / RFU, ZNF28 / Fold change vs veh, ZNF28 / RFU, RNGTT / Fold change vs veh, RNGTT / RFU, OGT / Fold change vs veh, OGT / RFU, BRD1 / Fold change vs veh, BRD1 / RFU, MARS / Fold change vs veh, MARS / RFU, ZNF655 / Fold change vs veh, ZNF655 / RFU, FAHD1 / Fold change vs veh, FAHD1 / RFU, BDP1 / Fold change vs veh, BDP1 / RFU, LRRCC1 / Fold change vs veh, LRRCC1 / RFU, ARID1A / Fold change vs veh, ARID1A / RFU, ZNF146 / Fold change vs veh, ZNF146 / RFU, ZNF330 / Fold change vs veh, ZNF330 / RFU, GPN3 / Fold change vs veh, GPN3 / RFU, C9orf123 / Fold change vs veh, C9orf123 / RFU, N4BP2L2 / Fold change vs veh, N4BP2L2 / RFU, ARFIP1 / Fold change vs veh, ARFIP1 / RFU, FAM179B / Fold change vs veh, FAM179B / RFU, BCL10 / Fold change vs veh, BCL10 / RFU, UHRF1BP1L / Fold change vs veh, UHRF1BP1L / RFU, BET1 / Fold change vs veh, BET1 / RFU, CNOT2 / Fold change vs veh, CNOT2 / RFU, ZNF268 / Fold change vs veh, ZNF268 / Fold change vs veh, ZNF507 / RFU, DGCR2 / Fold change vs veh, DGCR2 / RFU, WDSUB1 / Fold change vs veh, WDSUB1 / Fold change vs veh, HSP90B1 /// MIR3652 / RFU, ADSS / Fold change vs veh, ADSS / RFU, GK / Fold change vs veh, GK / RFU, ZNF148 / Fold change vs veh, ZNF148 / RFU, TAF9 / Fold change vs veh, TAF9 / RFU, SLC1A5 / Fold change vs veh, SLC1A5 / RFU, SLMO2 / Fold change vs veh, SLMO2 / RFU, ABCC4 / Fold change vs veh, ABCC4 / RFU, LOC101060439 /// RAP1B / Fold change vs veh, LOC101060439 /// RAP1B / RFU, RFX7 / Fold change vs veh, RFX7 / RFU, GTPBP10 / Fold change vs veh, GTPBP10 / RFU, CNEP1R1 / Fold change vs veh, CNEP1R1 / RFU, BIVM-ERCC5 /// ERCC5 / Fold change vs veh, BIVM-ERCC5 /// ERCC5 / RFU, ILF3 / Fold change vs veh, ILF3 / RFU 11762660_at / Fold change /veh 11762660_at / RFU VCAN (11757783_s_at) / Fold change /veh VCAN (11757783_s_at) / RFU DDX43 (11728927_at) / Fold change /veh DDX43 (11728927_at) / RFU KRT8 (11758188_x_at) / Fold change /veh KRT8 (11758188_x_at) / RFU NKD1 (11759106_at) / Fold change /veh NKD1 (11759106_at) / RFU SRD5A1 (11742802_a_at) / Fold change /veh SRD5A1 (11742802_a_at) / RFU TPSAB1 /// TPSB2 (11721975_s_at) / Fold change /veh TPSAB1 /// TPSB2 (11721975_s_at) / RFU GSTM3 (11746129_a_at) / Fold change /veh GSTM3 (11746129_a_at) / RFU IL23R (11737362_x_at) / Fold change /veh IL23R (11737362_x_at) / RFU TMEM51 (11727254_a_at) / Fold change /veh TMEM51 (11727254_a_at) / RFU PIWIL2 (11732686_x_at) / Fold change /veh PIWIL2 (11732686_x_at) / RFU ORM1 (11744905_x_at) / Fold change /veh ORM1 (11744905_x_at) / RFU CCDC152 (11743942_at) / Fold change /veh CCDC152 (11743942_at) / RFU ECM1 (11717891_a_at) / Fold change /veh ECM1 (11717891_a_at) / RFU IL23R (11748794_a_at) / Fold change /veh IL23R (11748794_a_at) / RFU TNFAIP8L3 (11732012_x_at) / Fold change /veh TNFAIP8L3 (11732012_x_at) / RFU MBOAT4 (11741988_at) / Fold change /veh MBOAT4 (11741988_at) / RFU 11764193_at / Fold change /veh 11764193_at / RFU TMEM53 (11763286_at) / Fold change /veh TMEM53 (11763286_at) / RFU MAGEB2 (11727129_at) / Fold change /veh MAGEB2 (11727129_at) / RFU TMEM200A (11744735_a_at) / Fold change /veh TMEM200A (11744735_a_at) / RFU CCDC152 (11751479_a_at) / Fold change /veh CCDC152 (11751479_a_at) / RFU FAM211A (11726209_a_at) / Fold change /veh FAM211A (11726209_a_at) / RFU RGS16 (11746705_a_at) / Fold change /veh RGS16 (11746705_a_at) / RFU VCAN (11755009_s_at) / Fold change /veh VCAN (11755009_s_at) / RFU RHOB (11743442_s_at) / Fold change /veh RHOB (11743442_s_at) / RFU RGS16 (11720943_a_at) / Fold change /veh RGS16 (11720943_a_at) / RFU RGS16 (11720944_at) / Fold change /veh RGS16 (11720944_at) / RFU, VPS4B / Fold change vs veh, VPS4B / RFU, CREB1 / Fold change vs veh, CREB1 / RFU, DNAJC13 / Fold change vs veh, DNAJC13 / RFU, GNAQ / Fold change vs veh, GNAQ / RFU, CDK5R1 / Fold change vs veh, CDK5R1 / RFU, ZRANB3 / Fold change vs veh, ZRANB3 / RFU, CUL4A / Fold change vs veh, CUL4A / RFU, CCNY / Fold change vs veh, CCNY / RFU, UFL1 / Fold change vs veh, UFL1 / RFU, COG3 / Fold change vs veh, COG3 / RFU, DIAPH2 / Fold change vs veh, DIAPH2 / RFU, SKA2 / Fold change vs veh, SKA2 / RFU, AFF3 / Fold change vs veh, AFF3 / RFU, LMF1 / Fold change vs veh, LMF1 / RFU, IPO11 / Fold change vs veh, IPO11 / RFU, DFFB / Fold change vs veh, DFFB / RFU, FOXP1 / Fold change vs veh, FOXP1 / RFU, CARD8 / Fold change vs veh, CARD8 / RFU, STRN3 / Fold change vs veh, STRN3 / RFU, ADK / Fold change vs veh, ADK / RFU, RASSF2 / Fold change vs veh, RASSF2 / RFU, WIPF1 / Fold change vs veh, WIPF1 / RFU, LARP1B / Fold change vs veh, LARP1B / RFU, RASA1 / Fold change vs veh, RASA1 / RFU, RB1 / Fold change vs veh, RB1 / RFU, PPFIA1 / Fold change vs veh, PPFIA1 / RFU, MAT2A / Fold change vs veh, MAT2A / RFU, CCT5 / Fold change vs veh, CCT5 / RFU, WDR92 / Fold change vs veh, WDR92 / RFU, CUX1 / Fold change vs veh, CUX1 / RFU, TTC7A / Fold change vs veh, TTC7A / RFU, TMEM135 / Fold change vs veh, TMEM135 / RFU, DEPTOR / Fold change vs veh, DEPTOR / RFU, CPM / Fold change vs veh, CPM / RFU, DNAJB6 / Fold change vs veh, DNAJB6 / RFU, CACNA2D3 / Fold change vs veh, CACNA2D3 / RFU, DTX4 / Fold change vs veh, DTX4 / RFU, TFCP2 / Fold change vs veh, TFCP2 / RFU, GMCL1 /// GMCL1P1 / Fold change vs veh, GMCL1 /// GMCL1P1 / RFU, AEBP2 / Fold change vs veh, AEBP2 / RFU, SNHG1 /// SNORD22 /// SNORD25 /// SNORD26 /// SNORD27 /// SNORD28 /// SNORD29 /// SNORD31 / Fold change vs veh, SNHG1 /// SNORD22 /// SNORD25 /// SNORD26 /// SNORD27 /// SNORD28 /// SNORD29 /// SNORD31 / Fold change (Aza/veh), C12orf56 (ProbeSet 11735607_a_at) / Fold change (ACY-1035/veh), C12orf56 (ProbeSet 11735607_a_at) / Fold change (Aza/veh), FGFR1OP (ProbeSet 11751329_s_at) / Fold change (ACY-1035/veh), FGFR1OP (ProbeSet 11751329_s_at) / Fold change (Aza/veh), VPS36 (ProbeSet 11739960_a_at) / Fold change (ACY-1035/veh), VPS36 (ProbeSet 11739960_a_at) / RFU SYPL1 (11715823_x_at) / Fold change /veh SYPL1 (11715823_x_at) / RFU IGFBP7 (11715501_s_at) / Fold change /veh IGFBP7 (11715501_s_at) / RFU REEP3 (11722064_at) / Fold change /veh REEP3 (11722064_at) / RFU IGLL1 (11728026_x_at) / Fold change /veh IGLL1 (11728026_x_at): dose or concentration left out as unconfirmed
# Settings: ProbeSet 11727641_at; LIST B
compound,measurement,value
Nc1ncn([C@@H]2O[C@H](CO)[C@@H](O)[C@H]2O)c(=O)n1 [azacitidine],"RFU, NOM1",178.62 RFU
